Experimental data: publication PMC4458427 (Journal of controlled release : official journal of the …, 2015)
Like-named read-outs stand apart in the source and are kept apart here. Where a SMILES comes first, the peptide text is derived from it.

Columns and labels:
[1] = test system: A549 (lung carcinoma) cells; assay: MTT cytotoxicity, A549; assay type: cell-based; settings: Homo sapiens, A549, 72 h
[2] = mouse, in vivo, 1 mg/kg
[3] = test system: NCI/ADR-RES (multi-drug resistant ovarian adenocarcinoma) cells; assay: cells; assay type: cell-based; settings: 72 h
[4] = mouse; cited from earlier work
[5] = human; cited from earlier work

**Q.** With `CC(=O)O[C@H]1C(=O)[C@@]2(C)[C@H]([C@H](OC(=O)c3ccccc3)[C@]3(O)C[C@H](OC(=O)[C@H](O)[C@@H](NC(=O)c4ccccc4)c4ccccc4)C(C)=C1C3(C)C)[C@]1(OC(C)=O)CO[C@@H]1C[C@@H]2O` [PTX, Paclitaxel] as the compound, how does the IC50 [1] read?
**A.** Its IC50 is 3.6 nM.

**Q.** And the “tolerability at maximum soluble concentration” value [2]?
**A.** The value was “well tolerated”.

**Q.** What about the IC50 ([3]; Homo sapiens, NCI/ADR-RES) of the same compound?
**A.** The IC50 was 9.7 µM.

**Q.** And the “decrease in activity compared to the peptide conjugate” value ([3]; NCI/ADR-RES, MTT)?
**A.** The value was roughly 2 fold.

**Q.** Which IC50 [3] does the source give for `CC(C)[C@H](NC(=O)[C@H](CCCCN)NC(=O)[C@@H](NC(=O)[C@H](CCCCN)NC(=O)[C@@H](NC(=O)[C@H](CCCCN)NC(=O)[C@@H](NC(=O)[C@@H]1CCCN1C(=O)[C@H]1CCCN1C(=O)[C@@H](NC(=O)[C@H](CCCCN)NC(=O)[C@@H](NC(=O)[C@H](CCCCN)NC(=O)[C@@H](NC(=O)[C@H](CCCCN)NC(=O)[C@@H](NC(=O)[C@@H](N)CCCCN)C(C)C)C(C)C)C(C)C)C(C)C)[C@@H](C)O)C(C)C)C(C)C)C(=O)N[C@@H](CCCCN)C(N)=O` [SVS-1] (HELM PEPTIDE1{K.V.K.V.K.V.K.V.[dP].P.T.K.V.K.V.K.V.K.[am]}$$$$V2.0) here?
**A.** Its IC50 is 3.21 µM.

**Q.** With KKVVFKVKFKK-NH2 [KSLK] as the compound, how does the reported half-life [4] read?
**A.** Its reported half-life is 6 min.

**Q.** With YGRKKRRQRRR-NH2 [TAT] as the compound, how does the reported half-life [5] read?
**A.** Its reported half-life is 3.5 min.
